Test results reported in publication PMC10572428, “Possibility of Using Different Calcium Compounds for the Manufacture of Fresh Acid Rennet Cheese from Goat’s Milk” (Foods, 2023).
Where two headings read alike, the source gives them in different places.

Assays:
[1] = pH of fresh acid rennet cheese; type: physicochemical, goat
Method: Fresh acid rennet cheese was produced following the methodology by Pawlos et al. (Scheme 1). The caprine milk was divided into batches, each containing 2000 g of milk, heated to 25 °C, and treated with varying amounts and dosages of calcium compound. The control sample (0 mg Ca per 100 g of milk) and milk with calcium addition (5, 10, 15, 20 mg Ca per 100 g of milk) were pasteurized in a water bath at 90 °C for 15 s. Subsequently, the milk was cooled to 28 °C, and each batch was inoculated with 0.20% (w/w) of starter culture for 15 min before adding 0.02% (v/w) of rennet. […] Acid rennet curds were then cut into 15 × 15 × 15 mm cubes and heated in a water bath at 35 °C for 1.5 h. Following this, the temperature was increased to 40 °C for 0.5 h. The whey was separated using cheesecloth, and the curds were transferred to molds, pressed (10 N kg^−1, 0.5 h) using a pneumatic cylinder press (Pneumatig, Gdynia, Poland), and refrigerated in labeled individual plastic containers at 4 °C for 24 h prior to analysis. All physicochemical analyses were conducted on ground cheese samples.
A pH meter (FiveEasy Mettler Toledo, Greifensee, Switzerland) and an electrode InLab® Solids Pro-ISM (Mettler Toledo, Greifensee, Switzerland) were used to determine the pH value in cheese.

[2] = Thermal stability of goat milk proteins during pasteurization (90 °C, 15 s); type: physicochemical; settings: doses up to 20 mg Ca per 100 g of milk
Method: (§1) Doses of calcium (5, 10, 15, and 20 mg Ca 100 g^−1 milk), based on the calcium compound’s molecular weight, were added to 100 g of raw goat’s milk in the form of chloride, gluconate, lactate, and carbonate and tested to determine the pH value and thermal stability of milk. A control sample (0 mg Ca 100 g^−1 milk) was also prepared. The samples were heated in a water bath to 25 °C, mixed, and pasteurized (90 °C, 15 s). In the cooled (25 °C) samples of control milk and milk with calcium addition, the pH value was determined using a FiveEasy pH meter with an electrode InLab® Solids Pro-ISM (Mettler Toledo, Greifensee, Switzerland).

[3] = Texture profile analysis (TPA) of cheese; type: physicochemical, goat
Method: Fresh acid rennet cheese was produced following the methodology by Pawlos et al. (Scheme 1). The caprine milk was divided into batches, each containing 2000 g of milk, heated to 25 °C, and treated with varying amounts and dosages of calcium compound. The control sample (0 mg Ca per 100 g of milk) and milk with calcium addition (5, 10, 15, 20 mg Ca per 100 g of milk) were pasteurized in a water bath at 90 °C for 15 s. Subsequently, the milk was cooled to 28 °C, and each batch was inoculated with 0.20% (w/w) of starter culture for 15 min before adding 0.02% (v/w) of rennet. The mixture was stirred and incubated at 28 °C until the pH reached 4.60 (±0.50) in a Cooled Incubator ILW 115 (POL-EKO Aparatura, Wodzisław Śląski, Poland). Acid rennet curds were then cut into 15 × 15 × 15 mm cubes and heated in a water bath at 35 °C for 1.5 h. Following this, the temperature was increased to 40 °C for 0.5 h. The whey was separated using cheesecloth, and the curds were transferred to molds, pressed (10 N kg^−1, 0.5 h) using a pneumatic cylinder press (Pneumatig, Gdynia, Poland), and refrigerated in labeled individual plastic containers at 4 °C for 24 h prior to analysis. All physicochemical analyses were conducted on ground cheese samples.
The texture profile analysis test (TPA) was performed with a CT3 Texture Analyzer and Texture Pro CT 1.2 software (Brookfield AMETEK, Middleboro, MA, USA). Before testing, cheese samples were cut (20 × 20 × 20 mm) and kept at a temperature of 10 °C ± 1 °C. Compression test was performed using a plastic plunger type TA3/100 (25.4 mm diameter) and configured with the following parameters: distance 15 mm, measurement speed 5 mm s^−1, contact load 1.00 N, and hold time 1 s. The TPA test was applied to measure cheese hardness (N), adhesiveness (mJ), cohesiveness, and springiness (mm).

[4] = pH value of goat's milk after pasteurization with added calcium compound; type: physicochemical
Method: as §1

[5] = parameters: method as in doi:10.21608/jfds.2019.54698; settings: cited from earlier work
[6] = parameters: method as in doi:10.1111/j.1471-0307.2010.00613.x; settings: 30 mM calcium added before heating; cited from earlier work

## O=C([O-])[C@H](O)[C@@H](O)[C@H](O)[C@H](O)CO.O=C([O-])[C@H](O)[C@@H](O)[C@H](O)[C@H](O)CO.[Ca+2] [Gluconate, calcium gluconate]
[1]; cheese, 20 mg Ca 100 g^−1 of milk
  pH: 4.61
[2]
  thermal stability of milk during pasteurization: not reduced
[3]; 15 mg Ca 100 g^−1 of milk
  Cohesiveness: 0.30
  Springiness: 3.94 mm

## O=C([O-])[O-].[Ca+2] [Carbonate, calcium carbonate]
[1]
  cheese pH value higher than the control cheese: 0.19
[4]
  increase of milk pH value compared to the control sample: 0.11
[2]
  thermal stability of milk during pasteurization: not reduced

## [Ca+2].[Cl-].[Cl-] [Chloride, Calcium chloride]
[4]; greatest reduction
  reduction of milk pH value compared to the control sample: 0.23
[4]; lowest dose of calcium, 5 mg 100 g^−1
  reduction of milk pH: 0.17
[5]; 200 mg 100 mL^−1 added to milk
  pH of Karish cheese: 4.69
[5]; 300 mg 100 mL^−1 added to milk
  pH of Karish cheese: 4.50
[6]
  reduction of pH of cow's milk: up to 0.64
[2]
  thermal stability of milk during pasteurization: not reduced
[3]; 5 mg Ca 100 g^−1 of milk
  Springiness: 1.27 mm

## CC(O)C(=O)[O-].CC(O)C(=O)[O-].[Ca+2] (stereo not drawn) [Lactate, calcium lactate]
[2]
  thermal stability of milk during pasteurization: not reduced
